In patent US20220409521A1, “COMPOSITION FOR COSMETICS” (FE:I BEAUTY TECH, INC., priority 2021, published 2022):

Tested on: Primary human dermal fibroblast (HDF) cells
Assay: Ferritin induction in HDF cells (ferritin and protein by ELISA)
Type: cell-based
Details: Example 1; 5 μM in culture media, 18 hours; vs cells with no treatment
Description: Primary human dermal fibroblast (HDF) cells were cultured in Dulbecco's modified eagle medium (DMEM) with GlutaMAX™ and 10% Fetal Bovine Serum (FBS) and 1% Streptomycin (antibiotics). Before treatment, cells were seeded in a 12-well plate (1 ml culture media and surface area of the well is approximately 4.0 cm^2 per well) overnight. After washing twice with cold phosphate buffered saline (PBS), HDF cells were starved in 0.1% FBS for overnight. Subsequently, cells were treated with ferrous sulfate septahydrate (FeSO4·7H2O) at a final concentration of 5 μM for additional 18 hours. Cells with no treatment were used as a control. Cells were then washed with PBS and lysed. Levels of ferritin and protein were measured by using commercially available enzyme-linked immunosorbent assays (ELISA) kits and quantitated with standard curves constructed with human liver ferritin and human serum albumin as standards. The results were expressed as μg ferritin per mg protein and are show in FIG. 2.
The two iron oxides were premixed homogeneously in a 50% (v/v) of water and tertraethylene glycol and incubated at 3 mg/ml overnight at room temperature in a sodium acetate buffer (10 mM, pH 5.0), mimicking the pHs of acid rain or sweat. […] After the foregoing treatment, cells were collected and levels of ferritin and proteins in cells were measured and calculated as described in Example 1. […]

In the case of O.O.O.O.O.O.O.O=S(=O)([O-])[O-].[Fe+2] [ferrous sulfate, ferrous sulfate septahydrate (FeSO4·7H2O)], the “increase in level of ferritin compared to the control” value is reported as 570%.
